Experimental data as given in patent publication US10272133B2, “Compositions and methods for treating and preventing hyperlipidemia, fatty liver, atherosclerosis and other disorders associated with metabolic syndrome” (VANDERBILT UNIVERSITY, priority 2011, dated 2019).
Converted amounts (≈) assume the structure as drawn. Where two headings read alike, the source gives them in different places. Each block holds one compound with its values, some of them ahead of it. Bridge positions count the residues as written; N and C are the ends. Ends that are not written are not given here. Peptide text beside a SMILES is read from it.

How the values were obtained:
GAPDH [1] = biological target: T1, GAPDH (Homo sapiens, UniProt P04406); experiment: Importins pull-down assay, HepG2 cell extract, control protein; assay type: binding; parameters: endogenous in cells; host or cells: human hepatoma HepG2 cells, starved overnight in 1% FBS, whole-cell extract; details: HepG2 cell extracts
Protocol: (§1) Cell-penetrating peptide cSN50.1 (2986 Da) and other peptides listed in Table 1 were synthesized and prepared as previously described (Liu, D., et al., (2009) Mol Ther 17, 796-802). Biotinylated NTM peptides and their constituent modules were prepared in the same manner, with biotin added to the amino terminus at the last step of synthesis. When necessary, a 5-7 hydrophilic amino acid tag was added to peptide modules to facilitate solubility. For i.p. administration, 200 μl aliquots containing 0.4 or 0.7 mg of cSN50.1 in saline was injected at 8 h or 12 h intervals. Alternatively, 10 mg cSN50.1 in 100 μl sterile H2O was administered subcutaneously from ALZET Osmotic Pumps (1007D) placed aseptically in interscapular areas. A bolus of 0.7 mg cSN50.1 in 100 μl saline was administered i.p. at weekly pump changes to assure steady NTM bioavailability. Dosage schedules were developed based on previous experimental protocols and half-life studies. Control mice received sterile saline in the same volumes as NTM. Importins pull-down assay. […] Beads were boiled for 10 min in SDS loading buffer, and protein content was analyzed by immunoblotting with a panel of anti-importins alpha and beta antibodies and anti-GAPDH (Abcam) as a cellular protein control. […]

[2] = system: importins alpha 1, 4, and 5; experiment: Importins pull-down assay, Jurkat T cell extract; assay type: binding, human; details: biotinylated peptide, Jurkat T cell lysate pull-down
Protocol: (§2) Cell-penetrating peptide cSN50.1 (2986 Da) and other peptides listed in Table 1 were synthesized and prepared as previously described (Liu, D., et al., (2009) Mol Ther 17, 796-802). Biotinylated NTM peptides and their constituent modules were prepared in the same manner, with biotin added to the amino terminus at the last step of synthesis. When necessary, a 5-7 hydrophilic amino acid tag was added to peptide modules to facilitate solubility. For i.p. administration, 200 μl aliquots containing 0.4 or 0.7 mg of cSN50.1 in saline was injected at 8 h or 12 h intervals. Alternatively, 10 mg cSN50.1 in 100 μl sterile H2O was administered subcutaneously from ALZET Osmotic Pumps (1007D) placed aseptically in interscapular areas. A bolus of 0.7 mg cSN50.1 in 100 μl saline was administered i.p. at weekly pump changes to assure steady NTM bioavailability. Dosage schedules were developed based on previous experimental protocols and half-life studies. Control mice received sterile saline in the same volumes as NTM. Importins pull-down assay. Ten nmols of biotinylated NTM peptides or their constituent modules depicted in Table 1 (SN50, cSN50.1, N50, cN50.1, SSHR-1, SSHR-2) were incubated overnight at 4° C. with 1.5 mg of whole cell extract from unstimulated human Jurkat T cells or serum-starved human HepG2 cells lysed in binding buffer (10 mM HEPES at pH 7.9, 150 mM NaCl, 10 mM KCl, 2.5 mM MgCl2, 1 mM EGTA, 1 mM DTT, 0.1% NP-40, 1% protease inhibitor cocktail). Lysate was cleared by centrifugation (16,000×g for 30 min at 4° C.) and transferred to a fresh tube containing high capacity Neutravidin beads (Thermo Scientific). After 4 h, beads were separated from lysate/peptide mixture by centrifugation (30 s at 1,000×g) and washed 3 times with binding buffer and 2 times with PBS. Beads were boiled for 10 min in SDS loading buffer, and protein content was analyzed by immunoblotting with a panel of anti-importins alpha and beta antibodies and anti-GAPDH (Abcam) as a cellular protein control.

importin beta [3] = biological target: T2, importin beta (Homo sapiens, UniProt Q14974); experiment: Importins pull-down assay, Jurkat T cell extract; assay type: binding; parameters: whole cell extract from unstimulated human Jurkat T cells; endogenous in cells; host or cells: human Jurkat T cells, whole-cell extract; details: biotinylated peptide, Jurkat T cell lysate pull-down
Protocol: as §2

importin beta [4] = biological target: T2, importin beta; experiment: Importins pull-down assay, HepG2 cell extract; assay type: binding; parameters: endogenous in cells; details: HepG2 cell extracts
Protocol: as §1

GAPDH [5] = biological target: T1, GAPDH; experiment: Importins pull-down assay, Jurkat T cell extract, control protein; assay type: binding; parameters: endogenous in cells; details: biotinylated peptide, Jurkat T cell lysate pull-down
Protocol: (§3) Cell-penetrating peptide cSN50.1 (2986 Da) and other peptides listed in Table 1 were synthesized and prepared as previously described (Liu, D., et al., (2009) Mol Ther 17, 796-802). Biotinylated NTM peptides and their constituent modules were prepared in the same manner, with biotin added to the amino terminus at the last step of synthesis. When necessary, a 5-7 hydrophilic amino acid tag was added to peptide modules to facilitate solubility. For i.p. administration, 200 μl aliquots containing 0.4 or 0.7 mg of cSN50.1 in saline was injected at 8 h or 12 h intervals. Alternatively, 10 mg cSN50.1 in 100 μl sterile H2O was administered subcutaneously from ALZET Osmotic Pumps (1007D) placed aseptically in interscapular areas. A bolus of 0.7 mg cSN50.1 in 100 μl saline was administered i.p. at weekly pump changes to assure steady NTM bioavailability. Dosage schedules were developed based on previous experimental protocols and half-life studies. Control mice received sterile saline in the same volumes as NTM. Importins pull-down assay. […] Beads were boiled for 10 min in SDS loading buffer, and protein content was analyzed by immunoblotting with a panel of anti-importins alpha and beta antibodies and anti-GAPDH (Abcam) as a cellular protein control.

importin beta [6] = biological target: T2, importin beta; experiment: Nuclear Transport Modifier/importin beta competition binding assay; parameters: whole cell extract from unstimulated human Jurkat T cells; endogenous in cells; host or cells: human Jurkat T cells, whole-cell extract; details: free non-biotinylated peptide 0-300 μM, Jurkat T cell extract
Protocol: Non-biotinylated SN50 peptide (at 0, 10, 30, 100 or 300 μM concentrations) was incubated overnight with 1 mg of human Jurkat T cell whole-cell extract at 4° C. Simultaneously, biotinylated SN50 peptide (10 nmols) was immobilized on high capacity Neutravidin beads at 4° C. overnight, then washed 3 times with PBS and 1 time with binding buffer to remove unbound biotinylated SN50. Binding mixture was precleared by centrifugation (16,000×g for 30 min at 4° C.) and transferred to a fresh tube containing washed high capacity Neutravidin beads complexed with immobilized biotinylated SN50 peptide. Immunoblot analysis of importin beta bound to beads was performed as described in the importins pull-down assay.

ldlr−/− mice = experiment: General safety in ldlr-/- mice (blood cells, blood chemistries, infection); assay type: in vivo, mouse
Protocol: Six week old B6.129S7-Ldlrtm1Her/J female mice were purchased from Jackson Laboratories. Mice were fed a Western diet containing 21% milk fat and 0.15% cholesterol and maintained according to the guidelines for use and care of laboratory animals approved by the Vanderbilt University Institutional Animal Care and Use Committee. Mice and food were weighed at the beginning and end of each experiment. Blood chemistries were determined in fasting mouse plasma using an automated chemistry analyzer in the Vanderbilt Clinical Research Center. Total cholesterol and triglycerides in liver and cholesterol in feces were analyzed by standard methods in the Lipid Core Laboratory. Complete blood cell counts were performed in the Clinical Hematology Laboratory and flow cytometry analysis of lymphocytes subsets was. Cryostat sections of livers were stained with Oil-red-O. Atherosclerotic lesions and macrophages were analyzed in the aortic root by staining with Oil-red-O and MOMA-2, respectively. Average lesion area was determined using Imaging System KS300 2.0.

Solubility of peptides = assay type: physicochemical
[7] = system: ldlr−/− mice fed a Western diet; experiment: Hyperlipidemia, fatty liver, hyperglycemia and weight gain in ldlr-/- mice fed a Western diet; assay type: in vivo, mouse
Protocol: as §3
Six week old B6.129S7-Ldlrtm1Her/J female mice were purchased from Jackson Laboratories. […] Blood chemistries were determined in fasting mouse plasma using an automated chemistry analyzer in the Vanderbilt Clinical Research Center. Total cholesterol and triglycerides in liver and cholesterol in feces were analyzed by standard methods in the Lipid Core Laboratory. […] Cryostat sections of livers were stained with Oil-red-O. Atherosclerotic lesions and macrophages were analyzed in the aortic root by staining with Oil-red-O and MOMA-2, respectively. Average lesion area was determined using Imaging System KS300 2.0.

T2 sequence (Q14974 whole entry): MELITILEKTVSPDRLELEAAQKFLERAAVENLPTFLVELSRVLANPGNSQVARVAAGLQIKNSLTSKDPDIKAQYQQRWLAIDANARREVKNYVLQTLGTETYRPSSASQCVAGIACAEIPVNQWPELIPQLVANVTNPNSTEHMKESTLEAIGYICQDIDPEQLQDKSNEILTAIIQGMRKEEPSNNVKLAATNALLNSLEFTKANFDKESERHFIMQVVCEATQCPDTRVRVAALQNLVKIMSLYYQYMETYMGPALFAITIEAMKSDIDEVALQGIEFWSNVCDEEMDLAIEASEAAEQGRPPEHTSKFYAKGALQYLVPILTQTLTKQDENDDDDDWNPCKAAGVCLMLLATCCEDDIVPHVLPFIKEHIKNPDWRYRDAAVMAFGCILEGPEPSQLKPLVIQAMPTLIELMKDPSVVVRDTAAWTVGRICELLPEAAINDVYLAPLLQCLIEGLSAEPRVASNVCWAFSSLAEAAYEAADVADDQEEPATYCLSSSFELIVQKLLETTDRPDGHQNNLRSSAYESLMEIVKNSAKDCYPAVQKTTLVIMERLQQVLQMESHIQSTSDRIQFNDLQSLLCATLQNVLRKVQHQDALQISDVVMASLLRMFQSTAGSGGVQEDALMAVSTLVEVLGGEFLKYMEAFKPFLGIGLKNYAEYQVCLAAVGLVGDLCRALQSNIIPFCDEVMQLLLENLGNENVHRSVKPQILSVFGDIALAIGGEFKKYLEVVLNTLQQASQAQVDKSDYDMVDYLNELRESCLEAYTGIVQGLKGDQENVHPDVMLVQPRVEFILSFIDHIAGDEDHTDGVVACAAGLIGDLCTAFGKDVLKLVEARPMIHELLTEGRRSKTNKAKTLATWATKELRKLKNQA
T1 sequence (P04406 whole entry): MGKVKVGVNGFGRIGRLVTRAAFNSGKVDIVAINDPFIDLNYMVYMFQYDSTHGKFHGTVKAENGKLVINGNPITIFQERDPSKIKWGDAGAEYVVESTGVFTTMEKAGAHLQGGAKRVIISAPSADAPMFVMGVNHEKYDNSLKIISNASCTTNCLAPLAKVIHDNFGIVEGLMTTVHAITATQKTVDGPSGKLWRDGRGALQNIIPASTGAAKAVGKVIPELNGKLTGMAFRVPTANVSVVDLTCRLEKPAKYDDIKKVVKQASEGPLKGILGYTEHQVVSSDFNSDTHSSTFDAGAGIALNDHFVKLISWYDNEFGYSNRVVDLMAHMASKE

interaction with control protein GAPDH (GAPDH [1]): not with the control protein GAPDH
interaction with importin beta (importin beta [3]): interacted
interaction with importin beta (importin beta [4]): interacted
inhibition of biotinylated SN50 binding to importin beta (importin beta [6]): competitively inhibited
Compound: AAVALLPAVLLALLAPVQRKRQKLMP [SN50]
interaction with importins alpha 1, 4, and 5 [2]: interacted
interaction with control cytoplasmic marker protein GAPDH (GAPDH [5]): not with the control cytoplasmic marker protein GAPDH

interaction with importin beta (importin beta [3]): importin beta-binding function
Compound: AVLLALLAP (HOMO SAPIENS) [SSHR-2]

Compound: CSCC[C@@H]1NC(=O)[C@H](CC(C)C)NC(=O)[C@H](CCCCN)NC(=O)[C@H](CCC(N)=O)NC(=O)[C@H](CCCNC(=N)N)NC(=O)[C@H](CCCCN)NC(=O)[C@H](CCCNC(=N)N)NC(=O)[C@H](CCC(N)=O)NC(=O)[C@H](C(C)C)NC(=O)[C@@H](NC(=O)[C@@H]2CCCN2C(=O)[C@H](C)NC(=O)[C@H](CC(C)C)NC(=O)[C@H](CC(C)C)NC(=O)[C@H](C)NC(=O)[C@H](CC(C)C)NC(=O)[C@H](CC(C)C)NC(=O)[C@@H](NC(=O)[C@H](C)NC(=O)[C@@H]2CCCN2C(=O)[C@H](CC(C)C)NC(=O)[C@H](CC(C)C)NC(=O)[C@H](C)NC(=O)[C@@H](NC(=O)[C@H](C)NC(=O)[C@H](C)N)C(C)C)C(C)C)CSSC[C@@H](C(=O)O)NC(=O)[C@@H]2CCCN2C1=O [cSN50.1] (H-AAVALLPAVLLALLAPCVQRKRQKLMPC-OH; disulfide 17-28; N-terminus and C-terminus assumed)
signs of infection or illness (ldlr−/− mice; 8 weeks of treatment): no overt signs of infection or illness
blood cell populations and blood chemistries (ldlr−/− mice; mouse, in vivo): did not reveal any significant changes
general susceptibility to environmental pathogens (ldlr−/− mice; mouse, in vivo): did not cause any apparent signs
solubility (Solubility of peptides; read-out: solubility): 100 mg/mL (≈ 33.5 mM)

Compound: AAVALLPAVLLALLAPCVQRDEQKLMPC (disulfide 17-28 (inferred)) [cSN50.1 Beta]
interaction with importins alpha 1, 4, and 5 [2]: did not react

interaction with importin beta (importin beta [3]): did not react
Compound: VQRKRQKLMP (HOMO SAPIENS) [N50]
interaction with importins alpha 1, 4, and 5 [2]: maintain reactivity

interaction with importin beta (importin beta [3]): did not react
Compound: CVQRKRQKLMPC (disulfide 1-12 (inferred)) [cN50.1]
interaction with importins alpha 1, 4, and 5 [2]: maintain reactivity
liver alanine and aspartate transaminases (ALT and AST) in plasma ([7]; 8 weeks): elevated levels
results vs mice given saline ([7]; control peptide, plasma cholesterol and triglycerides): not different
experimental endpoints (hypercholesterolemia) vs saline alone ([7]; non-cell penetrating control peptide in saline): did not differ significantly

solubility (Solubility of peptides; depending on the method of synthesis and purification, read-out: soluble at levels): 2 to 40 mg/mL (≈ 0.635 to 12.7 mM)
Compound: CSCC[C@@H]1NC(=O)[C@H](CC(C)C)NC(=O)[C@H](CCCCN)NC(=O)[C@H](CCC(N)=O)NC(=O)[C@H](CCCNC(=N)N)NC(=O)[C@H](CCCCN)NC(=O)[C@H](CCCNC(=N)N)NC(=O)[C@H](CCC(N)=O)NC(=O)[C@H](C(C)C)NC(=O)[C@H](Cc2ccc(O)cc2)NC(=O)[C@@H](NC(=O)[C@@H]2CCCN2C(=O)[C@H](C)NC(=O)[C@H](CC(C)C)NC(=O)[C@H](CC(C)C)NC(=O)[C@H](C)NC(=O)[C@H](CC(C)C)NC(=O)[C@H](CC(C)C)NC(=O)[C@@H](NC(=O)[C@H](C)NC(=O)[C@@H]2CCCN2C(=O)[C@H](CC(C)C)NC(=O)[C@H](CC(C)C)NC(=O)[C@H](C)NC(=O)[C@@H](NC(=O)[C@H](C)NC(=O)[C@H](C)N)C(C)C)C(C)C)CSSC[C@@H](C(=O)O)NC(=O)[C@@H]2CCCN2C1=O [cSN50] (H-AAVALLPAVLLALLAPCYVQRKRQKLMPC-OH; disulfide 17-29; N-terminus and C-terminus assumed)
